Reference: patent publication US6875581B1, “Method for screening of modulators of calcineurin activity” (Genopia Biomedical GmbH, priority 1998, dated 2005)
Each block holds one compound with its values, some of them ahead of it.

Tests used:
calcineurin [1] = assay: Phosphotyrosine phosphatase assay with the substrate fluoresceinmonophosphate (FMP); type: biochemical; conditions: FMP as substrate, Lineweaver-Burk method
Description: 20. Calcineurin phosphatase assay—100 ng-4 μg recombinant calcineurin (calcineurin-A/B heterodimer), 100 ng-1 μg purified bovine brain calcineurin (Sigma Aldrich, Deisenhofen, Germany) or 100 μg homogenized tissue or cell extracts were used for classical calcineurin phosphatase assays. 100 μg cells or tissue were homogenized exactly as described (Stemmer et al., 1995). Partly purified and redox sensitive calcineurin was prepared by centrifugation at 14,000 rpm at 4° C. for 10 min (Eppendorf centrifuge 5417R) and the resulting supernatant was separated on a 1.5×10 cm Sephadex-G50 gelfiltration column as described (Stemmer et al., 1995), (Gold et al., 1997). […] After starting the enzymatic reaction with para-nitrophenylphosphate or fluoresceinmonophosphate the absorbance at 405 nm (para-nitrophenylphosphate) or fluorescence λ exication=485 nm; λ emission=520 nm) was monitored over 20 min at 30° C. using a UV/VIS/fluorescence microplate photometer (Biolumin 960 kinetic fluorescence/absorbance photometer, Molecular Dynamics). […] The protective effect of CuZnSOD against redox inactivation of calcineurin was determined by addition of 3 μg recombinant human wild-type or mutated CuZnSOD (constant CuZnSOD protein) or addition of 1.67 units of recombinant human wild-type or mutated CuZnSOD (constant CuZnSOD activity). […] The quantity of released phosphate was determined by a scintillation counting. […]

calcineurin [2] = assay: Protective effect of CuZnSOD against calcium induced redox inactivation of calcineurin (FK506 inhibitable RII-phosphopeptide activity); type: biochemical; conditions: 20 min vs 0 min; for Percentage of FK506 inhibitable RII-phosphopeptide activity after 20 min compared with the activity at 0 min, constant protein (3 μg): 3 μg CuZnSOD; for Percentage of FK506 inhibitable RII-phosphopeptide activity after 20 min compared with the activity at 0 min, constant activity (1.67 U): 1.67 U CuZnSOD
Description: 20. Calcineurin phosphatase assay—100 ng-4 μg recombinant calcineurin (calcineurin-A/B heterodimer), 100 ng-1 μg purified bovine brain calcineurin (Sigma Aldrich, Deisenhofen, Germany) or 100 μg homogenized tissue or cell extracts were used for classical calcineurin phosphatase assays. 100 μg cells or tissue were homogenized exactly as described (Stemmer et al., 1995). Partly purified and redox sensitive calcineurin was prepared by centrifugation at 14,000 rpm at 4° C. for 10 min (Eppendorf centrifuge 5417R) and the resulting supernatant was separated on a 1.5×10 cm Sephadex-G50 gelfiltration column as described (Stemmer et al., 1995), (Gold et al., 1997). Phosphotyrosine phosphatase assay was performed in microplates (100 μl total assay volume) either using 30 μM fluoresceinmonophosphate or 20 mM para-nitrophenylphosphate (Sigma Aldrich, Deisenhofen, Germany); 10 μl recombinant, purified or partly purified and assay buffer (25 mM Tris/HCl, pH 7; 2 mM CaCl2; 0.1 μM calmodulin; 25 μM FK506). After starting the enzymatic reaction with para-nitrophenylphosphate or fluoresceinmonophosphate the absorbance at 405 nm (para-nitrophenylphosphate) or fluorescence λ exication=485 nm; λ emission=520 nm) was monitored over 20 min at 30° C. using a UV/VIS/fluorescence microplate photometer (Biolumin 960 kinetic fluorescence/absorbance photometer, Molecular Dynamics). Phosphoserine phosphatase assay was performed as described (Hubbard and Klee, 1991), (Wang et al., 1996). […] The protective effect of CuZnSOD against redox inactivation of calcineurin was determined by addition of 3 μg recombinant human wild-type or mutated CuZnSOD (constant CuZnSOD protein) or addition of 1.67 units of recombinant human wild-type or mutated CuZnSOD (constant CuZnSOD activity). The reaction mixture was incubated for 2 min at 30° C. and stopped with 100 mM potassium phosphate/5% TCA. The reaction mixture was passed through a 0.5 ml ion-exchange column (Dowex; AG 50W-X8, BioRad) and the unbound phosphate eluted with 0.5 ml water. The quantity of released phosphate was determined by a scintillation counting.
Protective Effect of CuZnSOD of Calcium Induced Inactivation of Calcineurin
Percentage of FK506 inhibitable RII-phosphopeptide activity after 20 min compared with the activity at 0 min

[3] = SOD assay (enzymatic activity of the CuZnSOD proteins); type: biochemical
Description: 8. SOD assay and activity staining—Enzymatic activity of the CuZnSOD proteins were either analyzed by 10% native gel electrophoresis and activity staining with nitrotetrazolium blue dye or by a quantitative spectrophotometrically assay according to published protocols (Beauchamp and Fridovich, 1971; Nebot et al., 1993). Protein yields were determined by the Bradford method (Protein assay kit, BioRAD, Hercules, Calif., USA). The concentration of purified CuZnSOD was determined spectrophotometrically using the extinction coefficient 265=1.84×10^4 M^−1 cm^−1.

[4] = test system: calcineurin-A/B heterodimer; assay: Laser fluctuation correlation spectroscopy, binding of fluorescence labeled CuZnSOD to calcineurin; set-up: species or system human; conditions: labeled CuZnSOD alone 41 kDa; expected 114 kDa
Source text: 21. High Throughput BioAssay using recombinant calcineurin-A, recombinant calcineurin-B, calmodulin and recombinant CuZnSOD (analytical assay to identify activators or inhibitors of CuZnSOD/calcineurin interaction)—Laser fluctuation correlation spectroscopy (FCS) is a useful tool to quantify ligand—ligand interactions. The fluorescence F(t) of a optical well defined volume element which is excitated by a confocal laser is monitored as a function of time. The temporal autocorrelation of the fluorescence fluctuation δ F(t) yields the time scale of this dynamics and the average number of independent fluorophores in the probe volume. If the fluorescene fluctuation arise from diffusive motion and from fluorescence sensitive reaction, fluorescent fluctuation correlation function signal is approximated by the formula: GDR(τ)=GDiff(τ)*[1+A*exp(−kR*τ)] • τ=fluorescence correlation time • kR=apparent binding constant of the fluorescent labeled ligand • A=equilibrium coefficent dependent constant
If one measurement is performed with a solution only containing the fluorescent labeled ligand and a second measurement is performed with a solution containing the fluorescent labeled ligand and an interacting molecule the correlation function GDR can be separately analyzed and yields binding parameters of the interacting molecules. […]

Vmax (calcineurin [1]): 400 µmol/min
Km (calcineurin [1]; Michaelis-Menten kinetic assumed): 40 µM
Compound: O=C1OC2(c3ccc(O)cc3Oc3cc(OP(=O)(O)O)ccc32)c2ccccc21 (stereo not shown) [FMP, fluoresceinmonophosphate]

Compound: erythrocyte wild-type: purified human erythrocyte CuZnSOD (Sigma Aldrich) [reference compound]
Percentage of FK506 inhibitable RII-phosphopeptide activity after 20 min compared with the activity at 0 min, constant protein (3 μg) (calcineurin [2]): 57 +/− 10%
Percentage of FK506 inhibitable RII-phosphopeptide activity after 20 min compared with the activity at 0 min, constant activity (1.67 U) (calcineurin [2]): 57 +/− 10%
CuZnSOD activity per mg protein [3]: (8330 U/mg)

Compound: labeled CuZnSOD: recombinant CuZnSOD labeled with Oregon-Green-514 dye
hydrodynamic radius / apparent molecular weight after addition of calcineurin-A/B heterodimer [4]: 90 kDa

Compound: recomb. mutation A4V: recombinant human CuZnSOD with substitution Ala-4 -> Val-4
Percentage of FK506 inhibitable RII-phosphopeptide activity after 20 min compared with the activity at 0 min, constant protein (3 μg) (calcineurin [2]): 22 +/− 27%
Percentage of FK506 inhibitable RII-phosphopeptide activity after 20 min compared with the activity at 0 min, constant activity (1.67 U) (calcineurin [2]): 8 +/− 3%
CuZnSOD activity per mg protein [3]: (1820 U/mg)

Compound: recomb. mutation D90A: recombinant human CuZnSOD with substitution Asp-90 -> Ala-90
Percentage of FK506 inhibitable RII-phosphopeptide activity after 20 min compared with the activity at 0 min, constant protein (3 μg) (calcineurin [2]): 42 +/− 17%
Percentage of FK506 inhibitable RII-phosphopeptide activity after 20 min compared with the activity at 0 min, constant activity (1.67 U) (calcineurin [2]): 32 +/− 15%
CuZnSOD activity per mg protein [3]: (4590 U/mg)
hydrodynamic radius / apparent molecular weight after addition of calcineurin-A/B heterodimer [4]: 180.000 kDa

Compound: recomb. mutation G93A: recombinant human CuZnSOD with substitution Gly-93 -> Ala-93
Percentage of FK506 inhibitable RII-phosphopeptide activity after 20 min compared with the activity at 0 min, constant protein (3 μg) (calcineurin [2]): 16 +/− 16%
Percentage of FK506 inhibitable RII-phosphopeptide activity after 20 min compared with the activity at 0 min, constant activity (1.67 U) (calcineurin [2]): 21 +/− 22%
CuZnSOD activity per mg protein [3]: (2130 U/mg)

Compound: recombinant wild-type: recombinant human wild-type copper/zinc superoxide dismutase expressed in E. coli
Percentage of FK506 inhibitable RII-phosphopeptide activity after 20 min compared with the activity at 0 min, constant protein (3 μg) (calcineurin [2]): 70 +/− 33%
Percentage of FK506 inhibitable RII-phosphopeptide activity after 20 min compared with the activity at 0 min, constant activity (1.67 U) (calcineurin [2]): 56 +/− 22%
CuZnSOD activity per mg protein [3]: (6380 U/mg)
